Reference: patent US12286452B2, “Amphiphilic aminoglycoside connexin hemichannel inhibitors” (Texas Tech University System, priority 2018, dated 2025)
Like-named read-outs stand apart in the source and are kept apart here.

Legend:
Cx43 HCs [1] = molecular target: T1, Cx43 HCs (Homo sapiens, UniProt P17302); experiment: Cx43-dependent growth complementation assay in E. coli LB2003; assay type: cell-based; conditions: for Cx43/Cx26 Selectivity: IC50 Cx26/IC50 Cx43; for inhibition at 15 µM / Cx43 inhibition (%): 15 μM
T1 construct: expressed in transfected cells
T1 sequence (P17302 whole entry): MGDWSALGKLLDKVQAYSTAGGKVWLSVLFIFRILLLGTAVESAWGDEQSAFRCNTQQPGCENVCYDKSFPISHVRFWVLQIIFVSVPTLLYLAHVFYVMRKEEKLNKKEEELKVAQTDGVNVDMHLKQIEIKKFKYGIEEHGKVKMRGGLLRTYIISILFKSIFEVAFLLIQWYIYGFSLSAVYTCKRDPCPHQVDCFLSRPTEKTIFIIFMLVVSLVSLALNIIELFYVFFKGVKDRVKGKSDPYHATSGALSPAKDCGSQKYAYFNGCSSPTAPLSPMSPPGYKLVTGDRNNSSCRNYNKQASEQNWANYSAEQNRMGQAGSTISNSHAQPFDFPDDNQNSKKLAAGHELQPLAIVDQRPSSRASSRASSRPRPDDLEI

Cx43 HCs [2] = molecular target: T1, Cx43 HCs; conditions: cited from earlier work
human Cx26 HCs [3] = molecular target: T2, human Cx26 HCs (Homo sapiens, UniProt P29033); experiment: Cx26-dependent growth complementation assay in E. coli LB2003; assay type: cell-based
T2 construct: expressed in transfected cells; host or cells: E. coli LB2003 (carrying pREP4), transformed with pQE-Cx26, IPTG-induced
Protocol: These derivatives were prepared by sequential benzylation and methylation followed by reduction of azido groups or hydrogenolysis of the Bn. […] Connexin HC inhibition was conducted using a bacteria-based assay of HC function^39. In this assay, Cx26 HCs are expressed in E. coli LB2003 cells, which lack three major K^+ uptake systems (Kdp, Kup and Trk), and as a result they cannot grow in low-[K^+] media^39-41. However, growth of this E. coli strain in low-[K^+] medium can be rescued by expression of K^+-permeable channels such as connexin HCs^39, 42-43. Under the conditions of the assay (LB2003 cells expressing HCs and grown in low-K^+ medium), inhibition of the HCs reduces or abolishes growth^39, 42-43. This is a simple assay where bacterial growth in multi-well plates can be followed by measuring the absorbance at 600 nm (OD600)^29.
LB2003 cells generously provided by Dr. E. P. Bakker (Osnabruk University, Osnabruk, Germany) were transformed with the plasmid pQE-Cx26 (human Cx26 into pQE60) and pREP4. […] LB2003 cells cannot grow in low-[K^+] media because of insufficient K^+ uptake for growth due to the knockout of three key K^+ transporters (Atrk, Akup, Akdp strain)^2-4. Details and validation of the growth complementation assay have been published recently^2. In brief, competent LB2003 containing the pREP4 plasmid were transformed with pQE-Cx26. These cells were grown overnight in Luria-Bertani medium (BD, Franklin Lakes, NJ, USA) supplemented with 100 mM KCl (to allow growth) and 0.4 mg/mL ampicillin, and then washed four times with NLM (see below), to remove residual K^+ from the Luria-Bertani medium. The washed cells were resuspended in complementation growth medium to an OD600 of 0.2. NLM contained 46 mM Na2HPO4, 23 mM NaH2PO4, 8 mM (NH4)2SO4, 0.4 mM MgSO4, 0.012 mM FeSO4, 1 mM sodium citrate, 44 mM glucose and 0.006 mM thiamine hydrochloride, pH 7.0. KLM had the same composition that NLM except for the equimolar replacement of Na^+ with K^+. For growth complementation we used NLM+4 mM KCl, and Cx26 expression was induced with 0.5 mM IPTG at the time of dilution to OD600=0.2. For the assay, the cells were seeded in 96-well plates and were incubated at 30° C., with shaking at 500 rpm. OD600 was measured after 18-h incubation in a plate reader. The initial OD600=0.2 was subtracted for growth calculations. Data are presented as means±SEM. Statistically significant differences were calculated by the Student t-test for unpaired data. Data were obtained from at least 3 independent experiments, with 3 repeats per experiment.

human Cx26 HCs [4] = molecular target: T2, human Cx26 HCs; conditions: commercial aminoglycosides, the 16th table, adapted from ref. 1; cited from earlier work
[5] = Table 3, read-out: Cx243% inhibition
[6] = commercial aminoglycosides, the 16th table, adapted from ref. 1, read-out: Cx43 IC50
[7] = KI members, the 23rd table, read-out: Cx43 % inhibition
[8] = Table 6, read-out: Cx43 (% inhibition)
[9] = the 15th table, second Cx43 column, sub-head and unit not given
[10] = the 15th table, sub-head and unit inferred, read-out: Cx43 IC50
[11] = K members, the 21st table, read-out: Cx43 % inhibition

In the case of NCC1O[C@H](OC2C(N)CC(N)C(OC3O[C@H](CO)C(O)C(N)[C@H]3O)C2O)C(O)[C@@H](O)[C@@H]1O (stereo in doubt) [Kanamycin A, reference compound], the inhibition at 15 µM (Cx43 HCs [1]; [5]) is given as 15.6 ± 1.4%, the inhibition at 50 µM (Cx43 HCs [1]; [5]) is given as 40.4 ± 1% and the IC50 (Cx43 HCs [2]; approximate, text b120, read-out: IC50 for inhibition of Cx43 HCs) is given as about 50 µM. It also gave an inhibition at 15 µM (human Cx26 HCs [3]; Table 3) of 49.7 ± 1.6% and an inhibition at 50 µM (human Cx26 HCs [3]; Table 3) of 77.4 ± 1.8%.

In the case of NC[C@H]1O[C@H](O[C@H]2[C@H](O[C@@H]3O[C@H](CO)[C@@H](O)[C@H]3O)[C@@H](O)[C@H](N)C[C@@H]2N)[C@H](N)[C@@H](O)[C@@H]1O [Ribostamycin], the IC50 (human Cx26 HCs [4]) is listed as over 100 µM and the IC50 (Cx43 HCs [2]; [6]) is listed as over 200 µM.

In the case of CN[C@@H]1[C@@H](O)[C@@H](O[C@@H]2[C@@H](O)[C@H](O[C@H]3O[C@H]([C@@H](C)O)[C@@H](O)[C@H](O)[C@H]3N)[C@@H](N)C[C@H]2N)OC[C@]1(C)O [Compound G418, G418], the “Cx43/Cx26 Selectivity” value (Cx43 HCs [1]; the 16th table) is listed as 0.20, the IC50 (human Cx26 HCs [4]) is listed as 0.44 ± 0.06 µM and the IC50 (Cx43 HCs [2]; [6]) is listed as 3 ± 0.8 µM.

For NC1CC(N)C(O[C@H]2OC(CNC(=O)CCCc3ccc4ccc5cccc6ccc3c4c56)[C@@H](O)C(O)C2O)[C@H](O)C1OC1O[C@H](CO)C(O)C(N)[C@H]1O (stereo partly drawn) [KI09], the inhibition at 15 µM (Cx43 HCs [1]; [7]) was 43 ± 10.7%, the “Cx43 inhibition (%)” value (Cx43 HCs [1]; Table 6, listed as 4e) was 52.2 ± 8.8% and the inhibition at 15 µM (Cx43 HCs [1]; [8]) was over 50%. The inhibition at 50 µM (Cx43 HCs [1]; [7]) was 56.8 ± 11%, the inhibition at 50 µM (Cx43 HCs [1]; [8]) was 69.6 ± 7.5% and the “Cx43/Cx26 Selectivity” value (Cx43 HCs [1]; Table 7) was 2,16. For the same molecule, the IC50 (Cx43 HCs [1]; Table 7, read-out: Cx43 IC50) was 8.6 ± 1 µM, the “Cx43 Imax” value (Cx43 HCs [1]; [9]) was 80.2 ± 7.0 and the IC50 (Cx43 HCs [1]; [10]) was 8.6 ± 3 µM. For the same molecule, the inhibition at 15 µM (human Cx26 HCs [3]; Table 3) was 36.9 ± 3.9%, the inhibition at 15 µM (human Cx26 HCs [3]; Table 6) was 36.9 ± 3.9% and the inhibition at 50 µM (human Cx26 HCs [3]; Table 3) was 79.2 ± 7.5%. For the same molecule, the inhibition at 50 µM (human Cx26 HCs [3]; Table 6) was 79.2 ± 7.5%, the “Cx26 Imax” value (human Cx26 HCs [3]; the 15th table, Cx26, sub-head and unit not given) was 95.3 ± 3.5 and the IC50 (human Cx26 HCs [3]; the 15th table, Cx26, unit not given (cf. the 22nd table), read-out: Cx26 IC50) was 18.6 ± 2.1 µM.

For Cc1ccc(OC[C@H]2OC(OC3C(N)CC(N)C(O[C@H]4OC(CN)[C@@H](O)C(O)C4O)[C@@H]3O)[C@H](O)C(N)C2O)cc1 (stereo partly drawn) [Compound K82], the inhibition at 15 µM (Cx43 HCs [1]; [11]) was 58.4 ± 10.6%, the “Cx43 inhibition (%)” value (Cx43 HCs [1]; Table 6, listed as 8b) was 63.8 ± 6.8% and the inhibition at 15 µM (Cx43 HCs [1]; [8]) was over 50%. The inhibition at 50 µM (Cx43 HCs [1]; [11]) was 71 ± 14.1%, the inhibition at 50 µM (Cx43 HCs [1]; [8]) was 76.8 ± 5.8% and the “Cx43/Cx26 Selectivity” value (Cx43 HCs [1]; Table 7, listed as 8b) was 7.97. The IC50 (Cx43 HCs [1]; Table 7, read-out: Cx43 IC50) was 6.2 ± 1.4 µM, the “Cx43 Imax” value (Cx43 HCs [1]; [9]) was 91.1 ± 11.5 and the IC50 (Cx43 HCs [1]; [10]) was 7.1 ± 1.4 µM. The “Cx43 Imax” value (Cx43 HCs [1]; the 22nd table) was 91.1 ± 11.5%, the IC50 (Cx43 HCs [1]; the 22nd table, read-out: Cx43 IC50) was 7.1 ± 1.4 µM and the “Cx43 Imax” value (Cx43 HCs [1]; the 24th table) was 91.1 ± 11.5%. It also gave an IC50 (Cx43 HCs [1]; the 24th table, read-out: Cx43 IC50) of 7.1 ± 1.4 µM, an inhibition at 15 µM (human Cx26 HCs [3]; Table 3) of 19.3 ± 2.2% and an inhibition at 15 µM (human Cx26 HCs [3]; Table 6) of 19.3 ± 2.2%. The inhibition at 50 µM (human Cx26 HCs [3]; Table 3) was 28.2 ± 4.5%, the inhibition at 50 µM (human Cx26 HCs [3]; Table 6) was 28.2 ± 4.5% and the IC50 (human Cx26 HCs [3]; Table 7, read-out: Cx26 IC50) was 49.4 ± 9.3 µM.

For COc1ccc(COCC2OC(OC3C(N)CC(N)C(OC4OC(CN)C(O)C(O)C4O)C3O)C(O)C(N)C2OCc2ccc(OC)cc2)cc1 (stereo not drawn) [Compound 10, 4″,6″-Di-O-(4-methoxybenzyl) kanamycin], the IC50 (Cx43 HCs [1]; 4″,6″-disubstituted AKs, Table 5, read-out: Cx43 IC50) was 4.1 ± 1.5 µM, the “Cx43/Cx26 Selectivity” value (Cx43 HCs [1]; Table 5, listed as 2b) was 3.17 and the IC50 (Cx43 HCs [1]; K46 members, the 20th table, read-out: IC50 (μM) against Cx43) was 4.1 ± 1.5 µM. It also gave an IC50 (Cx43 HCs [1]; the 12th table, Hill fit, mean ± SEM, some n = 1, read-out: Cx43 IC50) of 4.1 ± 1.5 µM and an IC50 (human Cx26 HCs [3]; first Table 2, read-out: IC50, inhibition of Cx26 by synthetic AGs) of 13 ± 0.7 µM.

NCC1O[C@H](OC2C(N)CC(N)C(OC3O[C@H](CNC(=O)c4ccccc4-c4c5ccc(=O)cc-5oc5cc(O)ccc45)C(O)C(N)[C@H]3O)[C@H]2O)C(O)C(O)[C@@H]1O (stereo partly drawn) [Compound K40] showed an inhibition at 15 µM (Cx43 HCs [1]; [11]) of 45.3 ± 2.7%, an inhibition at 15 µM (Cx43 HCs [1]; [5]) of 45.3 ± 2.7% and an inhibition at 50 µM (Cx43 HCs [1]; [11]) of 55.1 ± 5.8%. It also gave an inhibition at 50 µM (Cx43 HCs [1]; [5]) of 55.1 ± 5.8%, an inhibition at 15 µM (human Cx26 HCs [3]; Table 3) of 37.1 ± 13.5% and an inhibition at 50 µM (human Cx26 HCs [3]; Table 3) of 81 ± 1.7%.
